Assay [1] concerns the target Phosphatidylinositol 4,5-bisphosphate 3-kinase catalytic subunit gamma isoform (Homo sapiens, UniProt P48736). Description: Inhibition of PI3Kgamma (unknown origin) using PIP2 as substrate preincubated for 15 mins followed by substrate addition measured after 60 mins by HTRF method. Background: TR-FRET usually uses a lanthanide donor and a delayed reading to cut background.

The target of assay [2] is Phosphatidylinositol 4,5-bisphosphate 3-kinase catalytic subunit beta isoform (Homo sapiens, UniProt P42338). Put plainly: Inhibition of PI3Kbeta (unknown origin) using PIP2 as substrate preincubated for 15 mins followed by substrate addition measured after 60 mins by HTRF method.
The target of assay [3] is Phosphatidylinositol 4,5-bisphosphate 3-kinase catalytic subunit alpha isoform (Homo sapiens, UniProt P42336). Description: Inhibition of PI3Kalpha (unknown origin) using PIP2 as substrate preincubated for 15 mins followed by substrate addition measured after 60 mins by HTRF method.
Assay [4] has as its target T1, Phosphatidylinositol 4,5-bisphosphate 3-kinase catalytic subunit delta isoform (Homo sapiens, UniProt O00329).
T1 sequence (O00329 whole entry): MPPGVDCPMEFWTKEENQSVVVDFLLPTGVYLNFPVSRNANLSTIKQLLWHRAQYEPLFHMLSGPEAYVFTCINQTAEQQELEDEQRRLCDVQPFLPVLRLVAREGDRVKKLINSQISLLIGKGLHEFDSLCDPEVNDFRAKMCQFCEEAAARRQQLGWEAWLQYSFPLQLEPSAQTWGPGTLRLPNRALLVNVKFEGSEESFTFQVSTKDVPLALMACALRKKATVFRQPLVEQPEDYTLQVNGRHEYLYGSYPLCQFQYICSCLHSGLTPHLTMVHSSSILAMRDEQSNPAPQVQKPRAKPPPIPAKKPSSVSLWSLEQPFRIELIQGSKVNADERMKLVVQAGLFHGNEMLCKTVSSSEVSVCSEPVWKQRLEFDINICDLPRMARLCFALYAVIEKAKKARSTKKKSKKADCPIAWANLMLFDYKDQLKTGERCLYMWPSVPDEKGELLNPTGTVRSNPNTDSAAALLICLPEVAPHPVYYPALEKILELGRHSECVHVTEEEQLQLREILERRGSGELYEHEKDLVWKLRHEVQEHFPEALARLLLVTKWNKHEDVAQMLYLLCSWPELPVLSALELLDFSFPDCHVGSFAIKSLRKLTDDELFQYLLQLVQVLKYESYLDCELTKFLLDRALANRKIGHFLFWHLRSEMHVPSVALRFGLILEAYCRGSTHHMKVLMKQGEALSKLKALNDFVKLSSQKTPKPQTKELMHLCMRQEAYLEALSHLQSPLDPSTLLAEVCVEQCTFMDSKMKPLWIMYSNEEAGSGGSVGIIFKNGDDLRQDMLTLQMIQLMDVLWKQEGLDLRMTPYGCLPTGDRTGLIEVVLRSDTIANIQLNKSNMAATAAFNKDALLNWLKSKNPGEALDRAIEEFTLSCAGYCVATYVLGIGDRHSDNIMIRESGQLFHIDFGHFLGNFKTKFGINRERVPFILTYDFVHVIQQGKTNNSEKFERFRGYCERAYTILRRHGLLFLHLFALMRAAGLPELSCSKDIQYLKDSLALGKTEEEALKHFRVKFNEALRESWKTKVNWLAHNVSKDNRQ
Put plainly: Inhibition of PI3Kdelta (unknown origin) using PIP2 as substrate preincubated for 15 mins followed by substrate addition measured after 60 mins by HTRF method.

The target in assay [5] is Tyrosine-protein kinase JAK2 (Homo sapiens, UniProt O60674). Put plainly: Inhibition of JAK2 (unknown origin).
Assay [6] concerns the target Leucine-rich repeat serine/threonine-protein kinase 2 (Homo sapiens, UniProt Q5S007). Description: Inhibition of LRRK2 (unknown origin).
The target in assay [7] is Glycogen synthase kinase-3 beta (Homo sapiens, UniProt P49841). Put plainly: Inhibition of GSK3B (unknown origin).
For assay [8], the target named is Tyrosine-protein kinase ITK/TSK (Homo sapiens, UniProt Q08881). Description: Inhibition of ITK (unknown origin).
Assay [9] concerns the target Tyrosine-protein kinase BTK (Homo sapiens, UniProt Q06187). Put plainly: Inhibition of BTK (unknown origin).
For assay [10], the target named is Rho-associated protein kinase 1 (Homo sapiens, UniProt Q13464). Put plainly: Inhibition of ROCK1 (unknown origin).
For assay [11], the target named is Inhibitor of nuclear factor kappa-B kinase subunit alpha (Homo sapiens, UniProt O15111). Put plainly: Inhibition of IKK1 (unknown origin).
The target of assay [12] is Tyrosine-protein kinase SYK (Homo sapiens, UniProt P43405). Put plainly: Inhibition of SYK (unknown origin).
Another assay deals with Aurora kinase B (Homo sapiens, UniProt Q96GD4). Description: Inhibition of Aurora B (unknown origin).
For assay [13], the target named is Tyrosine-protein kinase Lck (Homo sapiens, UniProt P06239). Put plainly: Inhibition of LCK (unknown origin).
Assay [14] addresses Inhibitor of nuclear factor kappa-B kinase subunit beta (Homo sapiens, UniProt O14920). Put plainly: Inhibition of IKK2 (unknown origin).
For assay [15], the target named is Mitogen-activated protein kinase kinase kinase 5 (Homo sapiens, UniProt Q99683). Put plainly: Inhibition of ASK1 (unknown origin).
For assay [16], the target named is Mitogen-activated protein kinase 14 (Homo sapiens, UniProt Q16539). Put plainly: Inhibition of p38alpha (unknown origin).
Assay [17] concerns the target Mitogen-activated protein kinase 10 (Homo sapiens, UniProt P53779). Put plainly: Inhibition of JNK3 (unknown origin).
Assay [18] deals with Tyrosine-protein kinase JAK3 (Homo sapiens, UniProt P52333). Put plainly: Inhibition of JAK3 (unknown origin).
Assay [19] has as its target Epidermal growth factor receptor (Homo sapiens, UniProt P00533). Description: Inhibition of EGFR (unknown origin).

From ChEMBL document CHEMBL4382269, “Discovery of Potent, Efficient, and Selective Inhibitors of Phosphoinositide 3-Kinase δ through a Deconstruction and Regrowth Approach” (J Med Chem, 2018) come the findings set out here.

Phosphatidylinositol 4,5-bisphosphate 3-kinase catalytic subunit beta isoform, sequence (P42338 whole entry, canonical isoform): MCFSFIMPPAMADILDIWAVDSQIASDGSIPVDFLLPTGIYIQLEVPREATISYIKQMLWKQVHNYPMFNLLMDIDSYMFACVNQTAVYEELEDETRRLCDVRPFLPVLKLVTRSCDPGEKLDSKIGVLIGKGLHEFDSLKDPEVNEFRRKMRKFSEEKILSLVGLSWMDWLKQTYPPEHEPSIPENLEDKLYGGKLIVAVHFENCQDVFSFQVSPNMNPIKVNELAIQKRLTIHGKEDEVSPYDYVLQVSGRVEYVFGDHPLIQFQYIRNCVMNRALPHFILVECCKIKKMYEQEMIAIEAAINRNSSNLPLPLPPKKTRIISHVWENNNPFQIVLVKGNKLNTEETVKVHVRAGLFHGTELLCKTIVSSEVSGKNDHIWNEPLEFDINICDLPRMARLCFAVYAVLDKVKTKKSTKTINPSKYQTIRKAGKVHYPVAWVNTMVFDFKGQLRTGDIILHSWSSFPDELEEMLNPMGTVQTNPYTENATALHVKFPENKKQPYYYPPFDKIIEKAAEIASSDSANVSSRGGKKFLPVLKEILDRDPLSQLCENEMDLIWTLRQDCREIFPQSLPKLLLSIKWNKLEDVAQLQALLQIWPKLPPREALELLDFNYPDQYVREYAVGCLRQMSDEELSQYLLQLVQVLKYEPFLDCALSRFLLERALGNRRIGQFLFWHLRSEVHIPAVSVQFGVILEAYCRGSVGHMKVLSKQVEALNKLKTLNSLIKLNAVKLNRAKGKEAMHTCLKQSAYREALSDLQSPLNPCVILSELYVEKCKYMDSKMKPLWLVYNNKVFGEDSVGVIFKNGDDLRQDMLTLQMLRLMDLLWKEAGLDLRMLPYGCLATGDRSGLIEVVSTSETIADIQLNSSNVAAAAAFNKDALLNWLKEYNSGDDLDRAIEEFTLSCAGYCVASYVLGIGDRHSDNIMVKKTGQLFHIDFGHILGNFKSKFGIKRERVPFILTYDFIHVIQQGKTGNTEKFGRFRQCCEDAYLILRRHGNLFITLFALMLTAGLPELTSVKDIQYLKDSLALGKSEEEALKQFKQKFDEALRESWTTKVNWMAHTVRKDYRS
Phosphatidylinositol 4,5-bisphosphate 3-kinase catalytic subunit gamma isoform, sequence (P48736 whole entry, canonical isoform): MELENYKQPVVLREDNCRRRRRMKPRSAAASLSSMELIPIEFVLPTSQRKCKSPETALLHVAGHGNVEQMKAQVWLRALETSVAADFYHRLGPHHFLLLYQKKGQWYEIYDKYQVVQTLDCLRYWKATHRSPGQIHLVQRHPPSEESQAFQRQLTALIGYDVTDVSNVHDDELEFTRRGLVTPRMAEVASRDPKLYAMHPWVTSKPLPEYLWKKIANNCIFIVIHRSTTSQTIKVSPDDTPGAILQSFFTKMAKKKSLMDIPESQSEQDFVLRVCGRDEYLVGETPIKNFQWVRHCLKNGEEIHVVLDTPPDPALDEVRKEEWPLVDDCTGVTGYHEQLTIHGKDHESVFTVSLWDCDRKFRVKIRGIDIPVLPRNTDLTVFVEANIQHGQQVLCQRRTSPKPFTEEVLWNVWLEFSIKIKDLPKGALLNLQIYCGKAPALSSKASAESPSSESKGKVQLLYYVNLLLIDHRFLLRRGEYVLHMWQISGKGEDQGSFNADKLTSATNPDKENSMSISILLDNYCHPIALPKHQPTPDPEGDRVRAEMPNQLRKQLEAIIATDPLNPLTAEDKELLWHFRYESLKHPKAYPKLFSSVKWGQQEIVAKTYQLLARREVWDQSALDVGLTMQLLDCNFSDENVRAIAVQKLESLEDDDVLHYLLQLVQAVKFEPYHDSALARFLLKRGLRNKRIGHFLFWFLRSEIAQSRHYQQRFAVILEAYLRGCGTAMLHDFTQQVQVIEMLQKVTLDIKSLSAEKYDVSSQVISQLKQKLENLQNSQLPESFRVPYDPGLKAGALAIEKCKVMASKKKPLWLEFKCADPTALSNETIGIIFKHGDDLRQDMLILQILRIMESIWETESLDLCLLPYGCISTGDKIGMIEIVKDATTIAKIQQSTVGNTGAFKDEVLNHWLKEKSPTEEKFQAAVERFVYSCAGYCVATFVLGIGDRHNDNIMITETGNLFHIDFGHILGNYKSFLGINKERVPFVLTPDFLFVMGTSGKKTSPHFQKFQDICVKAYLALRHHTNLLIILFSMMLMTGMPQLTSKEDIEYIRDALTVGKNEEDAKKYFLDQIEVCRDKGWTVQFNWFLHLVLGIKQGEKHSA
Phosphatidylinositol 4,5-bisphosphate 3-kinase catalytic subunit alpha isoform, sequence (P42336 whole entry, canonical isoform): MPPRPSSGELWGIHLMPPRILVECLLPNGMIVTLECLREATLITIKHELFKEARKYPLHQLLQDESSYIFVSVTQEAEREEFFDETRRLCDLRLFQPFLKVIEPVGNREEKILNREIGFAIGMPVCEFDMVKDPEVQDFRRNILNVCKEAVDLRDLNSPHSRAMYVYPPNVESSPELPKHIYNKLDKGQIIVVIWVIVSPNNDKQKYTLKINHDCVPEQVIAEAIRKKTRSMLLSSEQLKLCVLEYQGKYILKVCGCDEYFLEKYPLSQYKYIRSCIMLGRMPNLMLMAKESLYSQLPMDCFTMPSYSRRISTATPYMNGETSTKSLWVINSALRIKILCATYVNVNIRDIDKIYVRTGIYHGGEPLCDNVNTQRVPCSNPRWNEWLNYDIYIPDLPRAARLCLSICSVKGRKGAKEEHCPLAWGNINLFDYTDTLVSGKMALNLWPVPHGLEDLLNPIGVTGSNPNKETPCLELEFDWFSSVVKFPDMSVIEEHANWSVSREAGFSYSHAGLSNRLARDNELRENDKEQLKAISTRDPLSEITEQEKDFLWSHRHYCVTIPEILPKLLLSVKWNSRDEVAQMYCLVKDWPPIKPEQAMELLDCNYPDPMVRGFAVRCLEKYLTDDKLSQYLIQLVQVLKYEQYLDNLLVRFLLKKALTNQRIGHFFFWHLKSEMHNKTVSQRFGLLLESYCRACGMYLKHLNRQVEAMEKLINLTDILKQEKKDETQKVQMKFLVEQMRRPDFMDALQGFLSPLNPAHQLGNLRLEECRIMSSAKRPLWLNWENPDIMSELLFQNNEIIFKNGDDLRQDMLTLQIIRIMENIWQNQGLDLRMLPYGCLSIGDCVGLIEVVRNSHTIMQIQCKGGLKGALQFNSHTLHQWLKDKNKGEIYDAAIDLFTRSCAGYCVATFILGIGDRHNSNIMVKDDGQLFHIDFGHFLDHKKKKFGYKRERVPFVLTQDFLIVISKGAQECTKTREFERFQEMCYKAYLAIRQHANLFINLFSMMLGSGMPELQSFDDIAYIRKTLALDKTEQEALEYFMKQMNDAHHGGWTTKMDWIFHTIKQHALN
Aurora kinase B, sequence (Q96GD4 whole entry): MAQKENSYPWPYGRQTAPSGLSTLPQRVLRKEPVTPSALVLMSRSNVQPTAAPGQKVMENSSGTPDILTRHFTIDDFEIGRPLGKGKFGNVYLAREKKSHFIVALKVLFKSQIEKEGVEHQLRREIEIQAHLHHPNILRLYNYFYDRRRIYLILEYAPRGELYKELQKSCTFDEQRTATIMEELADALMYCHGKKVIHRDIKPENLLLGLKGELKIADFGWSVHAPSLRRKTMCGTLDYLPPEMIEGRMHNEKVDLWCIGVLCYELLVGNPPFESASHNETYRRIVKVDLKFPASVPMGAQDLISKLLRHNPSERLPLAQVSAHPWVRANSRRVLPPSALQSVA
Rho-associated protein kinase 1, sequence (Q13464 whole entry): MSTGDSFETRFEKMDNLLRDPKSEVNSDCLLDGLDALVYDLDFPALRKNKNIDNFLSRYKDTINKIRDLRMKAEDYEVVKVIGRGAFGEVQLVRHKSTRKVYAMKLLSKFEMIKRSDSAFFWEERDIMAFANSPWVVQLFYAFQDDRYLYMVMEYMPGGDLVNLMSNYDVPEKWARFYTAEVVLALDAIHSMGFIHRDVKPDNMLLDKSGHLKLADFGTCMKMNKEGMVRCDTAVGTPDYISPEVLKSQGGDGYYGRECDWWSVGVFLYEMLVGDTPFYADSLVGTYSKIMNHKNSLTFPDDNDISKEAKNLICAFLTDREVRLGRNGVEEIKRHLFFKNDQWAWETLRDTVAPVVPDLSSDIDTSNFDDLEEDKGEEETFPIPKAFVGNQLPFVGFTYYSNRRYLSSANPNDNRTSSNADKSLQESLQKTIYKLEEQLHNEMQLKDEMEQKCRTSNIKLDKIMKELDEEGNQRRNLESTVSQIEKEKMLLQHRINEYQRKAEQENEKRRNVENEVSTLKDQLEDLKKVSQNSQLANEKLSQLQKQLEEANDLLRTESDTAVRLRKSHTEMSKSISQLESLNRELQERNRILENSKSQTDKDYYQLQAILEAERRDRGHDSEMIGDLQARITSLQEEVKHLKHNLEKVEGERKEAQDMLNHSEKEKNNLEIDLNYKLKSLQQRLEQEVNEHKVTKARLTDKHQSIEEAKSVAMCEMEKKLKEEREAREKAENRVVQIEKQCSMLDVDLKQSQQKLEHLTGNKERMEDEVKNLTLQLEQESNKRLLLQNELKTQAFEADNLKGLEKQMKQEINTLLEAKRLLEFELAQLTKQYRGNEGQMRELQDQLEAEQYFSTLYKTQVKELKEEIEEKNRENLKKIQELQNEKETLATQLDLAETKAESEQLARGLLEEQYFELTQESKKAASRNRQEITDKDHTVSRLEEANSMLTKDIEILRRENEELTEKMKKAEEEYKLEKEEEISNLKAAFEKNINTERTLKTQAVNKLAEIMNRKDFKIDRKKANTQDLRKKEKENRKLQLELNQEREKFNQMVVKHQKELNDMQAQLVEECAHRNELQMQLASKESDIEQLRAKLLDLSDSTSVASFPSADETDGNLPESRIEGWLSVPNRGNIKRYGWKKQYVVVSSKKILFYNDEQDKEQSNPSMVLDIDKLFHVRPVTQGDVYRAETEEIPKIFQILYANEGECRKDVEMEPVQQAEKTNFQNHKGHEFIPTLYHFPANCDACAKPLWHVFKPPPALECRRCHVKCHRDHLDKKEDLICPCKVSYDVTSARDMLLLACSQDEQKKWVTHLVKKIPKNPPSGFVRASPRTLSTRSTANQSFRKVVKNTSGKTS

For the molecule `COc1ncc(-c2cc(-c3ncc(CN4C[C@@H](C)O[C@@H](C)C4)o3)c3cn[nH]c3c2)cc1NS(C)(=O)=O`, the IC50 in [1] was 0.316 µM; in [2] it was 2.51 µM; in assay [3] it was 0.398 µM.
Turning to `c1cc(-c2ccncc2)c2cc[nH]c2c1`, the IC50 in assay [1] was over 50.1 µM; in [4] it was 79.4 µM; in [2], over 50.1 µM; in assay [3] it was over 50.1 µM.
As to `O=S(=O)(Nc1cc(-c2ccccc2)cnc1Cl)c1ccccc1`, the IC50 in [1] is 12.6 µM; in assay [4], 1 µM; in [2], 15.8 µM; in [3] it was 31.6 µM.
The like results for `c1cc(-c2nnc(CN3CCOCC3)o2)c2cn[nH]c2c1` were, in that order, 25.1 µM, 158 µM, over 50.1 µM and over 50.1 µM.
Taken in the same sequence, the figures for `c1cc(-c2ccc3cn[nH]c3c2)c2cc[nH]c2c1` were over 158 µM, 7.94 µM, 25.1 µM and over 158 µM.
On to `CS(=O)(=O)Nc1cc(-c2ccncc2)cnc1Cl`, for which the IC50 in [1] is 3.98 µM; in assay [5], over 10 µM; in assay [4] it was 0.251 µM; in [6], over 10 µM; in assay [7] it was over 10 µM; in [8] it was over 10 µM. The IC50 (in [9]; in assay [10]; in assay [11]; in assay [12]; at Aurora kinase B; in assay [13]) was over 10 µM throughout. Also, the IC50 in assay [14] is over 10 µM; in assay [15] it was over 10 µM; in assay [2] it was 0.794 µM; in assay [3] it was 6.31 µM; in assay [16], over 10 µM; in assay [17], over 10 µM. Besides, the IC50 in assay [18] and in [19] was over 10 µM each time.
Regarding `O=S(=O)(Nc1cc(C2=CCOCC2)cnc1Cl)c1ccccc1`, the IC50 in assay [1] is 0.501 µM; in [4], 0.01 µM; in [2] it was 0.126 µM; in assay [3] it was 0.501 µM.
Turning to `CS(=O)(=O)Nc1cc(-c2ccc3cn[nH]c3c2)cnc1Cl`, the IC50 in assay [1] is 2.51 µM; in assay [4], 0.398 µM; in assay [2], 3.98 µM; in [3] it was 6.31 µM.
Take `CS(=O)(=O)Nc1cc(-c2cnc(N)nc2)cnc1Cl`: the IC50 was 0.2 µM in assay [1], 0.126 µM in assay [4], 0.158 µM in [2] and 1.58 µM in assay [3].
For `CS(=O)(=O)Nc1cc(-c2ccc3ccncc3c2)cnc1Cl`, the IC50 in [1] was 0.794 µM; in assay [4] it was 0.158 µM; in assay [2] it was 2.51 µM; in assay [3], 2.51 µM.
With `c1cc(-c2ccc3ccncc3c2)c2cc[nH]c2c1`, the IC50 in [1] was 15.8 µM; in [4], 3.98 µM; in [2], 15.8 µM; in assay [3], over 31.6 µM.

As a reminder, the IC50 is the concentration needed to halve the response being measured. Lower therefore signals inhibition by little substance.
